Conditions in one data set: not given
For the compound `COc1cccc(C)c1`, the boiling point is 176 °C and the melting point was -47 °C.

Take `CCCC(C)(C)C(C)(C)C`: the boiling point worked out at 160 °C, the log10 vapour pressure (mmHg) was determined as 0.589 and the melting point was -54 °C.

Turning to `C=COC(C)(C)C`, the boiling point came to 75 °C and the melting point is -112 °C.

The compound `O=C(O)c1cccs1` gave a melting point of 130 °C.

In turn, `Brc1ccc(Br)cc1` showed a boiling point of 218 °C, a log10 Koa of 5.21, a log10 vapour pressure (mmHg) of -1.24 and a melting point of 87.3 °C. The ready biodegradability entry is “not readily biodegradable”.

As for `O=S(=O)(Cl)CCCl`, the boiling point came to 202 °C.

For `c1cc2c3c(c1)ccc1ccc4cccc-2c4c13`, the log10 biodegradation half-life (days) was 2.54.

On to `O=[N+]([O-])C(CO)(CO)CO`, for which the melting point stood at 214 °C and the ready biodegradability result is “readily biodegradable”.

The compound `ClC1=C(Cl)C2(Cl)C3C(Cl)C(Cl)CC3C1(Cl)C2(Cl)Cl` (configuration not stated) returned a log10 Henry constant (atm·m³/mol) of -3.53, a log10 Koc (L/kg) of 4.78, a log10 vapour pressure (mmHg) of -4.69 and a melting point of 106 °C. The ready biodegradability entry is given as “not readily biodegradable”.

For the compound `CCOCC(=O)O`, the boiling point turned out to be 206 °C.

In turn, `O=Cc1ccccc1O[C@@H]1O[C@H](CO)[C@@H](O)[C@H](O)[C@H]1O` registered a melting point of 175 °C.

`CCCCCCCCCCCCCCCCCCOC(C)=O`: the melting point came to 34.5 °C.

As for `C1CC2OC2CC1C1CO1` (configuration not stated), the boiling point was 227 °C and the ready biodegradability result was “not readily biodegradable”.

With `CC(=O)c1ccsc1`, the boiling point came out at 210 °C and the melting point was determined as 60 °C.

In turn, `CCCCCCCCCCCl` returned a boiling point of 223 °C, a log10 vapour pressure (mmHg) of -2.01 and a melting point of -31.3 °C.

`Clc1ccc2c(c1)Oc1c(Cl)c(Cl)c(Cl)c(Cl)c1O2` had a log10 Koa of 10.7, a log10 vapour pressure (mmHg) of -9.18 and a melting point of 195 °C.

Compound `N[C@@H]1CONC1=O` had a melting point of 140 °C.

`CCCCCCCCCCOC(=O)c1ccccc1C(=O)OCCCCCC` returned a melting point of -4 °C.

As to `Clc1c(Cl)c(Cl)c2c(oc3c(Cl)c(Cl)c(Cl)c(Cl)c32)c1Cl`, the log10 Koa was found to be 11.9, the log10 vapour pressure (mmHg) was -11.4 and the melting point was 258 °C.

For the compound `CCCCCCCCCCCCCCC(C)O` (configuration not stated), the boiling point stood at 314 °C and the melting point is 44 °C.

With `CC(=O)C(C)O` (configuration not stated), the boiling point is 143 °C and the melting point stood at 15 °C.

`C1CN(CCN2CCOCC2)CCO1` yielded a boiling point of 285 °C and a melting point of 75 °C.

As for `COC(C)(OC)OC`, the boiling point came out at 108 °C.

Consider `CCCCCC1OC1CC1OC1CCCCCCCC(=O)OCC(COC(=O)CCCCCCCC1OC1CC1OC1CCCCC)OC(=O)CCCCCCCC1OC1CC1OC1CCCCC` (configuration not stated), for which the ready biodegradability result was “readily biodegradable”.

On to `CC(=O)C1CC1`, for which the boiling point worked out at 111 °C, the log10 Henry constant (atm·m³/mol) is -4.99 and the melting point is -68.3 °C.

The compound `CC(=O)[C@H]1CC[C@H]2[C@@H]3CC[C@@H]4CC(=O)CC[C@]4(C)[C@H]3CC[C@]12C` yielded a melting point of 123 °C.

As for `C=CC1CC2C=CC1C2` (configuration not stated), the boiling point amounted to 140 °C, the log10 vapour pressure (mmHg) was 0.992 and the melting point was -80 °C.

As for `CC(=O)OC(C(=O)Cl)c1ccccc1` (configuration not stated), the melting point was found to be 36 °C.

`CC(C)CCOC(=O)c1ccccc1` displayed a boiling point of 261 °C and a log10 vapour pressure (mmHg) of -0.848.

In the case of `O=[N+]([O-])c1ccc(-c2ccccc2)cc1`, the boiling point stood at 340 °C and the melting point is 114 °C.

`Cc1cccc(C)c1C` returned a boiling point of 176 °C, a log10 Henry constant (atm·m³/mol) of -2.36, a log10 Koc (L/kg) of 2.8 and a log10 biodegradation half-life (days) of 0.602. Moreover, the log10 vapour pressure (mmHg) worked out at 0.228, the melting point was -25.4 °C and the ready biodegradability entry is “not readily biodegradable”.

Take `COC(=O)c1ccc(OC)cc1`: the boiling point worked out at 256 °C and the melting point was 49 °C.

Turning to `Cc1ccc(S(=O)(=O)N(Cl)Cl)cc1`, the melting point was determined as 83 °C.

Take `CC(=O)OC(C)=O`: the boiling point turned out to be 140 °C, the log10 vapour pressure (mmHg) came out at 0.708 and the melting point is -73 °C.

Consider `c1ccc(Nc2ccc3ccccc3c2)cc1`, for which the boiling point amounted to 396 °C, the melting point was determined as 108 °C and the ready biodegradability entry is given as “not readily biodegradable”.

Consider `CCCCCCCCCN`, for which the boiling point is 202 °C, the log10 vapour pressure (mmHg) was -0.556 and the melting point is -1 °C.

Regarding `OC[C@H]1O[C@H]1c1ccccc1`, the melting point is 26.5 °C.

In turn, `CC(O)C1CCCCC1` (configuration not stated) showed a boiling point of 189 °C.

The data set is the same for the next values; noted with them: fish.
Compound `Cc1c([N+](=O)[O-])c(C)c([N+](=O)[O-])c(C(C)(C)C)c1[N+](=O)[O-]` gave a log10 BCF of 3.61.

The compound `CCCCC(C)CCCC(C)C` (configuration not stated) gave a log10 biotransformation half-life (days) of 0.32.

Regarding `O=NN(c1ccccc1)c1ccccc1`, the log10 BCF was 1.33 and the log10 biotransformation half-life (days) was -0.91.

In turn, `ClCC(Cl)(Cl)CCl` had a log10 BCF of 1.57 and a log10 biotransformation half-life (days) of -0.28.

With `Brc1ccc(Br)cc1`, the log10 BCF amounted to 2.21 and the log10 biotransformation half-life (days) turned out to be 0.31.

For `ClC1=C(Cl)C2(Cl)C3C(Cl)C(Cl)CC3C1(Cl)C2(Cl)Cl` (configuration not stated), the log10 BCF was 4.35 and the log10 biotransformation half-life (days) was 2.26.

The compound `Clc1c(Cl)c(Cl)c2c(oc3c(Cl)c(Cl)c(Cl)c(Cl)c32)c1Cl` returned a log10 BCF of 2.89 and a log10 biotransformation half-life (days) of 1.22.

Compound `Cc1cccc(C)c1C` had a log10 BCF of 2.29 and a log10 biotransformation half-life (days) of -0.22.

`c1ccc(Nc2ccc3ccccc3c2)cc1` gave a log10 BCF of 2.37 and a log10 biotransformation half-life (days) of -0.41.

The boiling point is the temperature at which the vapour pressure of the liquid equals the pressure above it. In general, melting point refers to the temperature of the solid-liquid transition.

Source of the values: the OPERA property sets (Mansouri et al. 2018).
